Data taken from the supplement of paper PMC10307832.

Experiments:
Experiment in all cases: relative viability (nuclei count vs DMSO), 5 days (fraction); higher = more cells survive
[1] = compound: CCC1=CN=CN=C1N2CCN(CC2)CC3=NC4=C(N3)C=C(C=C4)C(F)(F)F + NC(=O)Nc1cc(-c2cccc(F)c2)sc1C(=O)N[C@H]1CCCNC1 [AZD7762] (partner 0.2 µM)
Procedure, shortened: (§1)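 Values are medians from duplicate plates. Each reflects relative viability, defined as the nuclei count of treated wells over that of vehicle wells. Lung cancer cell lines in 1536-well plates were pin-tool dosed one day after seeding with one drug alone or with a fixed anchor-drug dose plus five library-drug doses (not always all listed) in √10 steps, then fixed, stained and imaged at 4× after 5 days.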

[2] = compound: CCn1c(-c2nonc2N)nc2cnc(Oc3cccc(NC(=O)c4ccc(OCCN5CCOCC5)cc4)c3)cc21 + CC(=O)c1c(C)c2cnc(Nc3ccc(N4CCNCC4)cn3)nc2n(C2CCCC2)c1=O [Palbociclib] (partner 0.5 µM)
Procedure, shortened: as §1

[3] = compound: CCn1c(-c2nonc2N)nc2cnc(Oc3cccc(NC(=O)c4ccc(OCCN5CCOCC5)cc4)c3)cc21 + C[C@]1(O)C[C@@H](c2nc(-c3ccc4ccc(-c5ccccc5)nc4c3)c3c(N)nccn32)C1 [Linsitinib] (partner 1 µM)
Procedure, shortened: as §1

Mirin + Palbociclib = compound: N=C1NC(=O)/C(=C/c2ccc(O)cc2)S1 [Mirin] + CC(=O)c1c(C)c2cnc(Nc3ccc(N4CCNCC4)cn3)nc2n(C2CCCC2)c1=O [Palbociclib] (partner 0.5 µM)
Procedure, shortened: as §1

HCC-366
relative viability ([1]; first compound 0.04 µM): 0.33 | relative viability ([1]; first compound 0.1265 µM): 0.256 | relative viability ([1]; first compound 0.4 µM): 0.219 | relative viability ([1]; first compound 1.265 µM): 0.226 | relative viability ([1]; first compound 4 µM): 0.302 | relative viability ([2]; first compound 0.04 µM): 0.367 | relative viability ([2]; first compound 0.1265 µM): 0.375 | relative viability ([2]; first compound 0.4 µM): 0.354 | relative viability ([2]; first compound 1.265 µM): 0.105 | relative viability ([2]; first compound 4 µM): 0.0645 | relative viability ([3]; first compound 0.04 µM): 0.435 | relative viability ([3]; first compound 0.1265 µM): 0.64 | relative viability ([3]; first compound 0.4 µM): 0.597 | relative viability ([3]; first compound 1.265 µM): 0.0751 | relative viability ([3]; first compound 4 µM): 0.0223 | relative viability (Mirin + Palbociclib; first compound 0.25 µM): 0.35 | relative viability (Mirin + Palbociclib; first compound 0.7906 µM): 0.39 | relative viability (Mirin + Palbociclib; first compound 2.5 µM): 0.405 | relative viability (Mirin + Palbociclib; first compound 7.906 µM): 0.404 | relative viability (Mirin + Palbociclib; first compound 25 µM): 0.366

HCC-827
relative viability ([1]; first compound 0.04 µM): 0.186 | relative viability ([1]; first compound 0.1265 µM): 0.233 | relative viability ([1]; first compound 0.4 µM): 0.208 | relative viability ([1]; first compound 1.265 µM): 0.196 | relative viability ([1]; first compound 4 µM): 0.174 | relative viability ([2]; first compound 0.04 µM): 0.49 | relative viability ([2]; first compound 0.1265 µM): 0.541 | relative viability ([2]; first compound 0.4 µM): 0.501 | relative viability ([2]; first compound 1.265 µM): 0.455 | relative viability ([2]; first compound 4 µM): 0.481 | relative viability ([3]; first compound 0.04 µM): 0.974 | relative viability ([3]; first compound 0.1265 µM): 0.907 | relative viability ([3]; first compound 0.4 µM): 0.94 | relative viability ([3]; first compound 1.265 µM): 0.992 | relative viability ([3]; first compound 4 µM): 0.823 | relative viability (Mirin + Palbociclib; first compound 0.25 µM): 0.524 | relative viability (Mirin + Palbociclib; first compound 0.7906 µM): 0.37 | relative viability (Mirin + Palbociclib; first compound 2.5 µM): 0.459 | relative viability (Mirin + Palbociclib; first compound 7.906 µM): 0.439 | relative viability (Mirin + Palbociclib; first compound 25 µM): 0.418

HOP-62
relative viability ([1]; first compound 0.04 µM): 0.491 | relative viability ([1]; first compound 0.1265 µM): 0.439 | relative viability ([1]; first compound 0.4 µM): 0.602 | relative viability ([1]; first compound 1.265 µM): 0.558 | relative viability ([1]; first compound 4 µM): 0.746 | relative viability ([2]; first compound 0.04 µM): 0.45 | relative viability ([2]; first compound 0.1265 µM): 0.371 | relative viability ([2]; first compound 0.4 µM): 0.424 | relative viability ([2]; first compound 1.265 µM): 0.279 | relative viability ([2]; first compound 4 µM): 0.365 | relative viability ([3]; first compound 0.04 µM): 1.22 | relative viability ([3]; first compound 0.1265 µM): 1.27 | relative viability ([3]; first compound 0.4 µM): 0.808 | relative viability ([3]; first compound 1.265 µM): 0.595 | relative viability ([3]; first compound 4 µM): 1.02 | relative viability (Mirin + Palbociclib; first compound 0.25 µM): 0.465 | relative viability (Mirin + Palbociclib; first compound 0.7906 µM): 0.536 | relative viability (Mirin + Palbociclib; first compound 2.5 µM): 0.46 | relative viability (Mirin + Palbociclib; first compound 7.906 µM): 0.381 | relative viability (Mirin + Palbociclib; first compound 25 µM): 0.458

IA-LM
relative viability ([3]; first compound 0.04 µM): 0.95 | relative viability ([3]; first compound 0.1265 µM): 0.8 | relative viability ([3]; first compound 0.4 µM): 0.658 | relative viability ([3]; first compound 1.265 µM): 0.54 | relative viability ([3]; first compound 4 µM): 0.681

LC-2-ad
relative viability ([1]; first compound 0.04 µM): 0.87 | relative viability ([1]; first compound 0.1265 µM): 0.807 | relative viability ([1]; first compound 0.4 µM): 0.823 | relative viability ([1]; first compound 1.265 µM): 0.81 | relative viability ([1]; first compound 4 µM): 0.804 | relative viability ([2]; first compound 0.04 µM): 0.563 | relative viability ([2]; first compound 0.1265 µM): 0.469 | relative viability ([2]; first compound 0.4 µM): 0.455 | relative viability ([2]; first compound 1.265 µM): 0.355 | relative viability ([2]; first compound 4 µM): 0.307 | relative viability ([3]; first compound 0.04 µM): 0.936 | relative viability ([3]; first compound 0.1265 µM): 0.899 | relative viability ([3]; first compound 0.4 µM): 0.756 | relative viability ([3]; first compound 1.265 µM): 0.55 | relative viability ([3]; first compound 4 µM): 0.352 | relative viability (Mirin + Palbociclib; first compound 0.25 µM): 0.543 | relative viability (Mirin + Palbociclib; first compound 0.7906 µM): 0.456 | relative viability (Mirin + Palbociclib; first compound 2.5 µM): 0.474 | relative viability (Mirin + Palbociclib; first compound 7.906 µM): 0.505 | relative viability (Mirin + Palbociclib; first compound 25 µM): 0.483

NCI-H520
relative viability ([2]; first compound 0.04 µM): 0.242 | relative viability ([2]; first compound 0.1265 µM): 0.207 | relative viability ([2]; first compound 0.4 µM): 0.199 | relative viability ([2]; first compound 1.265 µM): 0.176 | relative viability ([2]; first compound 4 µM): 0.175 | relative viability ([3]; first compound 0.04 µM): 1.07 | relative viability ([3]; first compound 0.1265 µM): 1.15 | relative viability ([3]; first compound 0.4 µM): 1.12 | relative viability ([3]; first compound 1.265 µM): 0.565 | relative viability ([3]; first compound 4 µM): 0.415 | relative viability (Mirin + Palbociclib; first compound 0.25 µM): 0.214 | relative viability (Mirin + Palbociclib; first compound 0.7906 µM): 0.267 | relative viability (Mirin + Palbociclib; first compound 2.5 µM): 0.245 | relative viability (Mirin + Palbociclib; first compound 7.906 µM): 0.188 | relative viability (Mirin + Palbociclib; first compound 25 µM): 0.138

NCI-H522
relative viability ([1]; first compound 0.04 µM): 0.87 | relative viability ([1]; first compound 0.1265 µM): 0.869 | relative viability ([1]; first compound 0.4 µM): 0.707 | relative viability ([1]; first compound 1.265 µM): 0.748 | relative viability ([1]; first compound 4 µM): 0.901 | relative viability ([2]; first compound 0.04 µM): 1.18 | relative viability ([2]; first compound 0.1265 µM): 1.13 | relative viability ([2]; first compound 0.4 µM): 0.853 | relative viability ([2]; first compound 1.265 µM): 0.909 | relative viability ([2]; first compound 4 µM): 0.827 | relative viability (Mirin + Palbociclib; first compound 0.25 µM): 1.02 | relative viability (Mirin + Palbociclib; first compound 0.7906 µM): 0.943 | relative viability (Mirin + Palbociclib; first compound 2.5 µM): 1.19 | relative viability (Mirin + Palbociclib; first compound 7.906 µM): 0.875 | relative viability (Mirin + Palbociclib; first compound 25 µM): 0.605

NCI-H596
relative viability ([1]; first compound 0.04 µM): 1.21 | relative viability ([1]; first compound 0.1265 µM): 1.07 | relative viability ([1]; first compound 0.4 µM): 1.07 | relative viability ([1]; first compound 1.265 µM): 0.992 | relative viability ([1]; first compound 4 µM): 1.08 | relative viability ([3]; first compound 0.04 µM): 1.05 | relative viability ([3]; first compound 0.1265 µM): 1.13 | relative viability ([3]; first compound 0.4 µM): 1.16 | relative viability ([3]; first compound 1.265 µM): 0.931 | relative viability ([3]; first compound 4 µM): 1.14

NCI-H661
relative viability ([2]; first compound 0.04 µM): 0.363 | relative viability ([2]; first compound 0.1265 µM): 0.395 | relative viability ([2]; first compound 0.4 µM): 0.366 | relative viability ([2]; first compound 1.265 µM): 0.365 | relative viability ([2]; first compound 4 µM): 0.303 | relative viability ([3]; first compound 0.04 µM): 0.652 | relative viability ([3]; first compound 0.1265 µM): 0.612 | relative viability ([3]; first compound 0.4 µM): 0.518 | relative viability ([3]; first compound 1.265 µM): 0.471 | relative viability ([3]; first compound 4 µM): 0.45 | relative viability (Mirin + Palbociclib; first compound 0.25 µM): 0.416 | relative viability (Mirin + Palbociclib; first compound 0.7906 µM): 0.426 | relative viability (Mirin + Palbociclib; first compound 2.5 µM): 0.406 | relative viability (Mirin + Palbociclib; first compound 7.906 µM): 0.369 | relative viability (Mirin + Palbociclib; first compound 25 µM): 0.401

NCI-H1299
relative viability ([3]; first compound 0.04 µM): 0.987 | relative viability ([3]; first compound 0.1265 µM): 0.858 | relative viability ([3]; first compound 0.4 µM): 0.777 | relative viability ([3]; first compound 1.265 µM): 0.47 | relative viability ([3]; first compound 4 µM): 0.769

NCI-H1563
relative viability ([3]; first compound 0.04 µM): 1.1 | relative viability ([3]; first compound 0.1265 µM): 1.1 | relative viability ([3]; first compound 0.4 µM): 1.12 | relative viability ([3]; first compound 1.265 µM): 0.884 | relative viability ([3]; first compound 4 µM): 0.869

NCI-H1648
relative viability ([1]; first compound 0.04 µM): 0.666 | relative viability ([1]; first compound 1.265 µM): 0.655 | relative viability ([1]; first compound 4 µM): 0.683 | relative viability ([2]; first compound 0.04 µM): 0.277 | relative viability ([2]; first compound 0.1265 µM): 0.245 | relative viability ([2]; first compound 0.4 µM): 0.231 | relative viability ([2]; first compound 1.265 µM): 0.474 | relative viability ([2]; first compound 4 µM): 0.388 | relative viability (Mirin + Palbociclib; first compound 0.25 µM): 0.328 | relative viability (Mirin + Palbociclib; first compound 2.5 µM): 0.304 | relative viability (Mirin + Palbociclib; first compound 7.906 µM): 0.265 | relative viability (Mirin + Palbociclib; first compound 25 µM): 0.224
